Assay results: paper PMC10096453, “One-Pot Synthesis and Evaluation of Antioxidative Stress and Anticancer Properties of an Active Chromone Derivative” (Molecules, 2023)
Where “and” joins values, the source holds several entries; their conditions need not be identical. Equal values may be shown once. Read-outs that look alike come from different tables or passages of the source.

Experiments:
HeLa cell = experiment: MTT anticancer activity assay, HeLa cells; type: cell-based; settings: for Anticancer activity on cervical cancer cells / IC50: HeLa; for IC50 / viability at 100 µM: Homo sapiens
Experimental: (§1) HEK293, HACAT, and HeLa cells were grown in modified Eagles’ minimum essential medium (EMEM, Gibco) with 10% fetal bovine serum (FBS, Gibco), 1% of 100 U/mL streptomycin and 100 U/mL penicillin (Gibco). Cells were seeded in culture flasks and maintained in an incubator at 37 °C in a humidified atmosphere with 5% CO2. After reaching 80–90% of confluence, cells were detached by incubation with 0.25% trypsin-0.2% EDTA (Gibco) for 5 min and plated for experiments.
(§2) This study examined cell cultures of HEK293, HACAT, and HeLa cells. The cytotoxicity of the test samples was carried out by the MTT (3-(4,5-dimethylthiazol-2-yl)-2,5-diphenyltetrazolium bromide) assay. The cells were seeded in 96-well microliter plates (2.0 × 10^4 cells/well). Stock solutions of the test compounds were prepared in DMSO. After 24 h, cells were treated with different concentrations of samples and diluted with media to obtain the final desired concentration. The treated cells were then incubated at 37 °C and 5% CO2 for 24 and 48 h. After incubation, the medium was replaced with 0.05% w/v of MTT solution in PBS and further incubated for 3 h. The solution was then discarded and DMSO was added to dissolve the formed formazan crystals. Each well’s absorbance (A) was measured at 570 nm using a microplate reader (FLUOstar Omega^TM, BMG Labtech, Ortenberg, Germany). All experiments were carried out in triplicate and repeated for at least three experiments.

[1] = FRAP (ferric reducing antioxidant power) assay; type: biochemical; settings: Trolox equivalent
Text: Three in vitro antioxidant assays (DPPH, FRAP, and ABTS) were utilized to evaluate the antioxidant property of the synthesized compounds. The DPPH (α, α-diphenyl-β-picrylhydrazyl) assay is the well-known approach to determine antioxidant activity using a stable free radical DPPH, measure the absorbance change, and calculate the absorbance change in the percentage of scavenging activity. […] For example, the ferric-tripyridyltriazine (Fe^3+-TPTZ, colorless) complex is reduced to ferrous tripyridyltriazine (Fe^2+-TPTZ) at low pH and introduces a blue color with maximum absorption at 593 nm. The change in absorbance is related to antioxidant activity. However, a significant limitation of these in vitro tests is the non-physiological measurement conditions (no enzymatic condition and no transition metal ion chelating activity); therefore, the results obtained may not reflect the antioxidant activity of the source material under the biological conditions that exist in humans and animals. The ABTS assay involves a more drastic radical that is chemically produced. The use of ABTS for antioxidant activity determination of hydrophilic and lipophilic pure compounds has attracted interest due to its solubility in organic and aqueous media and stability in a wide pH range [31].
The FRAP assay is a method for assessing antioxidant power. Briefly, the FRAP reagent was prepared from acetate buffer pH 3.6, 10 mM TPTZ solution in 40 mM HCl and 20 mM FeCl3.6 H2O in relative proportions of 10:1:1, v/v, respectively. The FRAP reagent was freshly prepared daily. A solution of 5 μL of the sample (3–300 μM, approx.) was mixed with 180 μL of the FRAP reagent in a 96-well plate. The mixture was shaken in the dark for 10 min and incubated at 37 °C for 20 min, and the absorbance was determined at 593 nm. The solution without the sample was used as a blank. All determinations were made in triplicate. Trolox was used as a standard antioxidant and plot the calibration curve between absorbance and concentration. Quercetin was applied as the reference compound. The FRAP values were calculated by comparing the absorbance change in the test sample and represented in μM of Trolox equivalent per μM of sample.

[2] = MTT cytotoxicity assay, HACAT cells; type: cell-based; settings: human; for viability at 24 h, 100 µM: read-out: % Viability ± SD (at 100 μM) HACAT 24 h; for viability at 48 h, 100 µM: read-out: % Viability ± SD (at 100 μM) HACAT 48 h
Experimental: as §1, §2

HeLa cells = experiment: Cell cycle analysis by flow cytometry; type: cell-based; settings: 24 h, 2f, 2j, quercetin at IC50, paclitaxel 5 μM
Experimental: The paclitaxel (5 μM) was performed as the positive control.
The treatment of HeLa cells and compounds was the same as in the apoptosis protocol. The cells were harvested for 200 μL and centrifuged at 600× g for 5 min and washed with PBS. The mixing cells were slowly added 200 μL of ice-cold 70% ethanol and incubated for at least 3 h at −20 °C. Cells were centrifuged and washed with PBS. Finally, cells were stained with 200 μL of Muse® cell cycle reagent and incubated at room temperature for 30 min in the dark. The cell was analyzed by flow cytometry (Guava Muse Cell Analyzer, Luminex, Austin, TX, USA).

[3] = MTT cytotoxicity assay, HEK293 cells; type: cell-based; settings: human, HEK293 cells, 100 μM; for viability at 24 h, 100 µM: read-out: % Viability ± SD (at 100 μM) HEK293 24 h; for viability at 48 h, 100 µM: read-out: % Viability ± SD (at 100 μM) HEK293 48 h
Experimental: as §1, §2

HEK293 cells = experiment: Protection against H2O2-induced cytotoxicity (MTT); type: cell-based; settings: 100 μM; HEK293, 7.5 mM H2O2 30 min
Experimental: The synthesized compounds were examined for the ability of the compounds to protect cells exposed to oxidative stress. Six active compounds from the antioxidant test, 2b, 2d, 2e, 2f, 2j, and 3i, were selected to study the ability of oxidative stress protection. The HEK293 cells were treated with 7.5 mM hydrogen peroxide for 30 min; samples and quercetin were added, and cell viability was investigated at 12 and 24 h treatment. The percentage of viable cells in each sample was calculated using the untreated cell as 100% survival (Figure 3).
Figure 3 Protective effect of synthesized compounds on H2O2-induced cytotoxicity in cultured HEK cells (means ± SD, n = 3). Data (cell viability, measured by the MTT assay) were expressed as a percentage of the control group, which is 100%. The results were calculated from three independent experiments and are shown as mean ± SD. Compared to the H2O2 model group, the p values were calculated using a one-way ANOVA with Tukey (Turkey HSD) multiple comparison analysis; * p < 0.05 at 12 h treatment, # p < 0.05 at 24 h treatment.

[4] = 24 h, read-out: % Viability ± SD (at 100 μM) HeLa 24 h
[5] = 48 h, read-out: % Viability ± SD (at 100 μM) HeLa 48 h

With `O=C(c1ccccc1)c1c(-c2ccccc2)oc2c(O)c(O)ccc2c1=O` [2f, 3-Benzoyl-7,8-dihydroxy-2-phenyl-4H-chromen-4-one] the “Anticancer activity on cervical cancer cells” value (HeLa cell; 24 h) was “contained anticancer activity”, the IC50 (HeLa cell; 24 h) was 191 ± 6.01 µM and the viability at 100 µM (HeLa cell; [4]) was 109.3 ± 0.92%. The viability at 100 µM (HeLa cell; [5]) was 29.2 ± 0.4%, the “FRAP593nm Value ± SD (TE)” value [1] was 1.70 ± 0.138 µM Trolox/1 µM of Synthesized Compounds and the viability at 24 h, 100 µM [2] was 81.6 ± 8.46%. For the same molecule, the viability at 48 h, 100 µM [2] was 77.1 ± 5.03%, the “Cell cycle phase arrest” value (HeLa cells) was “S phase arrest” and the “Cell population in G0/G1 phase” value (HeLa cells) was 41.26 ± 1.21%. For the same molecule, the “Cell population in G2/M phase” value (HeLa cells) was 24.71 ± 4.02%, the “Cell population in S phase” value (HeLa cells) was 34.03% and 34.03 ± 3.81 % and the viability at 24 h, 100 µM [3] was 105 ± 1.19%. The viability at 48 h, 100 µM [3] was 74.7 ± 0.83% and the “Protection of cells from oxidative stress” value (HEK293 cells) was “able to protect cells from oxidative stress”.

With `O=C(Oc1ccc2c(=O)c(C(=O)c3ccccc3)c(-c3ccccc3)oc2c1O)c1ccccc1` [2j, 3-Benzoyl-8-hydroxy-4-oxo-2-phenyl-4H-chromen-7-yl benzoate] the “Anticancer activity on cervical cancer cells” value (HeLa cell; 24 h) was “contained anticancer activity”, the IC50 (HeLa cell; 24 h) was 101 ± 3.18 µM and the viability at 100 µM (HeLa cell; [4]) was 65.2 ± 1.42%. For the same molecule, the viability at 100 µM (HeLa cell; [5]) was 30 ± 1.23%, the “FRAP593nm Value ± SD (TE)” value [1] was 0.34 ± 0.078 µM Trolox/1 µM of Synthesized Compounds and the viability at 24 h, 100 µM [2] was 72.6 ± 5.53%. The viability at 48 h, 100 µM [2] was 58 ± 2.63%, the “Cell cycle phase arrest” value (HeLa cells) was “S phase arrest” and the “Cell population in G0/G1 phase” value (HeLa cells) was 32.90 ± 4.05%. For the same molecule, the “Cell population in G2/M phase” value (HeLa cells) was 35.49 ± 4.98%, the “Cell population in S phase” value (HeLa cells) was 31.61% and 31.61 ± 0.93 % and the viability at 24 h, 100 µM [3] was 96 ± 2.62%. For the same molecule, the viability at 48 h, 100 µM [3] was 71.6 ± 5.19% and the “Protection of cells from oxidative stress” value (HEK293 cells) was “able to protect cells from oxidative stress”.

`O=c1c(O)c(-c2ccc(O)c(O)c2)oc2cc(O)cc(O)c12` [Quercetin, quercetin, reference compound] showed an IC50 (HeLa cell; 24 h) of 192.4 ± 1.27 µM, a viability at 100 µM (HeLa cell; [4]) of 69.1 ± 1.93% and a viability at 100 µM (HeLa cell; [5]) of 19.2 ± 0.25%. The “FRAP593nm Value ± SD (TE)” value [1] was 3.35 ± 0.231 µM Trolox/1 µM of Synthesized Compounds, the viability at 24 h, 100 µM [2] was 85.6 ± 125% and the viability at 48 h, 100 µM [2] was 76.8 ± 2.32%. For the same molecule, the “Cell cycle phase arrest” value (HeLa cells) was “S phase arrest”, the “Cell population in G0/G1 phase” value (HeLa cells) was 35.72 ± 2.67% and the “Cell population in G2/M phase” value (HeLa cells) was 26.40 ± 0.18%. The “Cell population in S phase” value (HeLa cells) was 37.88 ± 2.75 %, the “Cell population in S phase” value (HeLa cells; listed as quercetin) was 37.88% and the viability at 24 h, 100 µM [3] was 102 ± 1.58%. For the same molecule, the viability at 48 h, 100 µM [3] was 86.6 ± 4.66%.
